Data taken from patent US7947707B2, “Nitrogenated heterocyclic compound and pharmaceutical composition comprising the same” (Kissei Pharmaceutical Co., Ltd., priority 2005, dated 2011).

Assays:
[1] = biological target: T1, HEK293 cells forced to express URAT1 (Homo sapiens, UniProt Q96S37); assay: URAT1 inhibitory effect, [8-14C] uric acid uptake; type: cell-based; settings: test compound 100 μmol/L, 20 μmol/L uric acid, 5 minutes uptake
T1 construct: host or cells: HEK293
T1 sequence (Q96S37 1-553): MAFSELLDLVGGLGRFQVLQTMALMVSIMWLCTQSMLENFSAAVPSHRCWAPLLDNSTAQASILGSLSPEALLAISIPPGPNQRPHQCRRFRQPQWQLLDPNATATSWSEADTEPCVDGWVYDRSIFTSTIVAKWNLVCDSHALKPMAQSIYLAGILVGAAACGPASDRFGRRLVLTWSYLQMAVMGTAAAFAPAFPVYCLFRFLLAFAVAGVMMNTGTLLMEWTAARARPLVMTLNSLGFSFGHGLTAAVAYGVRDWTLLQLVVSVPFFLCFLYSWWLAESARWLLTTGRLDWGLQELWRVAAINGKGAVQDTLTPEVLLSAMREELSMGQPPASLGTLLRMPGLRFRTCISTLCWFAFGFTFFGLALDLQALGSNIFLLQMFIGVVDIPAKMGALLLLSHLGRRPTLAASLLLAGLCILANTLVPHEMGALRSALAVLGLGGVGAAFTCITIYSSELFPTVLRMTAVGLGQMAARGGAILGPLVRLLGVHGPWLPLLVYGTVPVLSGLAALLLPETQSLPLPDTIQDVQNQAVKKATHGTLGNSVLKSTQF
Text: DMEM containing 10% FBS (supplemented with 0.05% geneticin, Nissui Pharmaceutical Co., Ltd.), HEK293 cells forced to express URAT1 (HCS (Human cell Systems), (Fuji Biomedix)), HBSS as washing buffer and HBSS substituted with Na-gluconate (NaCl in HBSS was substituted with Na-gluconate) were used for assay. [8-^14C] uric acid (moravek) was used as an uric acid reagent and added to assay buffer at 20 μmol/L as a final concentration. Compounds of the present invention were used as a test compound, 20 mmol/L stock solution of each test compound (DMSO solution) was diluted appropriately, and then the diluted test compound solution was added to assay buffer at 100 μmol/L as a final concentration including 0.5% final concentration of DMSO.
To prepare assay plates, at first, cells on subculture petri dish were peeled off using treatment of 0.05% trypsin-EDTA solution, and then seeded on Biocoat Poly-D-Lysine Cellware 24 well plate (BECTON DICKINSON) at a density of 2×10^5 cells/well and cultured for 2 days.
For the uptake study, at first, culture medium was removed by aspiration and cells were washed twice with HBSS (37° C.), then the buffer was replaced with 1 mL of assay buffer (37° C.). Cells were pre-incubated for 10 minutes. And then, the buffer was removed by aspiration and 0.5 mL of radioisotope ligand solution incubated at 37° C. was added, then cells were incubated for 5 minutes. After uptake, radioisotope solution was removed by aspiration, and immediately cells were washed three times with ice-cold HBSS, followed by resolving by addition of 0.5 mL of 0.5 mol/L NaOH. Cell lysate solution was transferred to a vial or 24 well plate for Betaplate, and mixed with 0.5 mL of liquid scintillator (Optiphase ‘Super Mix’; Perkin Elmer). Radioisotope activity was measured (using Betaplate 1450). As mean count in control solution not including test compound was 100%, percent inhibition was calculated by determining percent decrease in mean count in solution including test compound from mean count in control solution.

[2] = tested on: potassium oxonate induced hyperuricemia; assay: Blood hypouricemic effect, potassium oxonate induced hyperuricemia; type: in vivo; settings: Rattus norvegicus, po; 10 mg/kg orally; male SD rats; serum 2 hours after administration; read-out: Decrease (%) in UA concentration
Experimental: Effect of compound of the present invention as a test compound was studied on potassium oxonate induced hyperuricemia with male 7-week-old SD rats (Charles River Japan) and potassium oxonate (Aldrich) suspended in 1% gum arabic solution. Test compound was suspended in 0.5% CMC-Na solution, and then administered orally. Dosing was 10 mg/kg or 50 mg/kg. All volume of administered solution was 10 mL/kg. Potassium oxonate 250 mg/kg was administered to dorsal region of rats subcutaneously, 1 hour later each test compound was administered orally. For control group, only 0.5% CMC-Na solution as a vehicle was administrated. At 2 hours after administration of test compounds or vehicle, blood was collected under ether anesthesia, and serum was separated according to general method. Treated number was 5 for each group.
Measurement of concentration of uric acid was conducted with following prepared reagents. The deproteinization reagent was prepared in the following manner; 100 g of sodium tungstate was added to a 2 L flask, and exactly 75 mL of 85% phosphoric acid and 500 mL of water were added to the flask equipped with a reflux condenser, and heated for an hour. After cooling, the resulting faint yellow-green solution was diluted to 1 L exactly. Sodium carbonate-urea reagent was prepared in the following manner; 14 g of anhydrous sodium carbonate and 14 g of urea were dissolved in water and final volume of the solution was adjusted to 100 mL exactly. Phosphotungstic coloring reagent was prepared in 4-fold dilution of deproteinzation reagent described above with water. UA standard solution (10 mg/dL: Kyokuto pharmaceutical industrial CO., LTD) was used as an uric acid standard solution, and then serially diluted uric acid standard solution with purified water was also used for standard curve.
Three hundred μL of serum or standard was added to 2.1 mL of purified water, and then 150 μL of deproteination reagent was also added to the solution, followed by mixing. After incubating for 20 minutes, the mixture was centrifuged at 3000 rpm for 10 minutes. Sodium carbonate-urea reagent (0.5 mL) was added to 1.5 mL of supernatant, and the mixture was incubated for 20 minutes. Next, after addition of 250 μL of coloring reagent, further incubation was carried over 15 minutes. Absorbance at 660 nm was measured, and concentration of uric acid was calculated with standard curve. Percent decrease in concentration of uric acid was calculated by following formula. Percent decrease in concentration of uric acid (%)=(A−B)/A×100
In formula, A means average of concentration of blood uric acid in control group, B means average of concentration of blood uric acid in test compounds-treated group.

[3] = biological target: T2, xanthine oxidase (from buttermilk) (Bos taurus, UniProt P80457); assay: Xanthine oxidase inhibitory effect; type: biochemical; settings: 100 μmol/L xanthine, 5 mU/mL enzyme; read-out: X.O. inhibition IC50
T2 construct: xanthine oxidase (from buttermilk; biozyme laboratories); purchased biozyme laboratories; host or cells: buttermilk (natural source)
T2 sequence (P80457 whole entry): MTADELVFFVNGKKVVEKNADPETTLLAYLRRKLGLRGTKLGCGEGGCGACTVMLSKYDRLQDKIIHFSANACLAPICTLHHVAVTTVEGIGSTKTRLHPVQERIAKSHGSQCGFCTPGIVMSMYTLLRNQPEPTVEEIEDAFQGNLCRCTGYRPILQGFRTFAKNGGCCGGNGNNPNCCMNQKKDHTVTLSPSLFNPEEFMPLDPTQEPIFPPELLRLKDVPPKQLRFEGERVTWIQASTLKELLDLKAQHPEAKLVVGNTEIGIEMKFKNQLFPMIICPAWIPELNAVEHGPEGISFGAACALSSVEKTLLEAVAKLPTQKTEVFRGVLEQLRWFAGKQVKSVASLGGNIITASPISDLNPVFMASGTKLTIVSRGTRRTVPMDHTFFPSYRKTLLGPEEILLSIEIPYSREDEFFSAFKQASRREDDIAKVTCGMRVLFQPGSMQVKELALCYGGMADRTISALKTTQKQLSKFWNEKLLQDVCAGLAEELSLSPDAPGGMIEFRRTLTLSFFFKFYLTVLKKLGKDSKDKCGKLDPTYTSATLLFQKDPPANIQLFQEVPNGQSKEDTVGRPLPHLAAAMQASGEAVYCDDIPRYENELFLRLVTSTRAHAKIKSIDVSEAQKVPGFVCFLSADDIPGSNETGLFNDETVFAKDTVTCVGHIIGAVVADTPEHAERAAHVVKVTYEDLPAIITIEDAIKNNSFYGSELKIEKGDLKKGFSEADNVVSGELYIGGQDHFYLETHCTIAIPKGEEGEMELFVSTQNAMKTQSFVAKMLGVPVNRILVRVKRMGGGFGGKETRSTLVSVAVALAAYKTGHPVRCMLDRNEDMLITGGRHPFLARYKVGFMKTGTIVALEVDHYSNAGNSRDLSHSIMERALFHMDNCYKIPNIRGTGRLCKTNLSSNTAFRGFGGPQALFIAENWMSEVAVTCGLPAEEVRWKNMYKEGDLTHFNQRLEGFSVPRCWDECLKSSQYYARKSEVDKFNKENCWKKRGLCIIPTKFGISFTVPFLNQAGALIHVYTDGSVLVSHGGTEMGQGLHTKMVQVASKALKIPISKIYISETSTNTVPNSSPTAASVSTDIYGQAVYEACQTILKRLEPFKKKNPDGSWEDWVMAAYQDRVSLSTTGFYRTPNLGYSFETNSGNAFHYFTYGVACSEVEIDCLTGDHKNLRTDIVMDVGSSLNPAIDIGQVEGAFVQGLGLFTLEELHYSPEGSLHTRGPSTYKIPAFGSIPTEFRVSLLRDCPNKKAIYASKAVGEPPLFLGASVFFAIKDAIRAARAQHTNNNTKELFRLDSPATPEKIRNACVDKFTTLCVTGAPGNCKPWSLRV
Experimental: Assay for inhibition of xanthine oxidase was performed in 100 μmol/L substrate concentration (final concentration), 5 mU/mL enzyme concentration (final concentration) and compounds of the present invention as test compounds which were prepared with xanthine oxidase (from buttermilk; biozyme laboratories), xanthine (Sigma) and phosphate-buffered saline (PBS). In addition, all test compounds were frozen for preservation in condition of 20 mmol/L DMSO solution and used for experiments after thawing at need. Method is following: after diluted solution of test compound was added to 90 μL of 11.1 mU/mL enzyme solution, the mixture was incubated for 10 minutes after mixing. To start reaction, 100 μL of 200 μmol/L substrate solution was added to there, 10 minutes later, the reaction was stopped by addition of 500 μL of 0.5 mol/L sulfuric acid, and then absorbance at […] was measured. Final concentration of test compound was a single concentration, 10 μmol/L in single well for initial screening and 6 concentrations, 10, 1 μmol/L, 100, 10, 1 nmol/L, 100 pmol/L in duplicate for assay to calculate 50% inhibitory concentration (IC50) which were used for assay. Percent inhibition was calculated according to the formula described below. Percent inhibition (%)=(A−B)/(A−C)×100
In formula, A means absorbance in wells without test compound, B means absorbance in wells with test compound, C means absorbance in blank wells.
IC50 value was calculated from percent inhibition in each concentration by nonlinear regression method.

| SMILES | inhibition at 100 µM [1] | IC50 [3] | inhibition in vivo at 10 mg/kg [2] |
| --- | --- | --- | --- |
| N#Cc1cn(-c2ccc(C(=O)O)cc2)c2nc(Cl)ccc12 [XO-KT18] | 95.2% | – | – |
| N#Cc1cnc2c(c1)c(C#N)cn2-c1ccc(C(=O)O)cc1 [XO-KT20] | 64.6% | – | – |
| Cc1c(-c2ccccc2)c(C#N)cn1-c1ccc(C(=O)O)cc1 [XO-B440] | – | 15.2 nM | 57.6% |
| Cc1c(C#N)c2ccccc2n1-c1ccc(C(=O)O)cc1 [XO-CH172] | 88.3% | – | – |
| COc1cccc2c1c(C#N)cn2-c1ccc(C(=O)O)cc1 [XO-CH211] | 81.1% | 16.4 nM | – |
| N#Cc1cn(-c2ccc(C(=O)O)cc2)nc1-c1ccccc1C(F)(F)F [XO-TT561] | – | 8.47 nM | – |
| N#Cc1cn(-c2ccc(C(=O)O)cc2)c2ccc(F)cc12 [XO-CH168] | 92.5% | 57.1 nM | – |
| N#Cc1cn(-c2ccc(C(=O)O)cc2)c2cc(C(F)(F)F)ccc12 [XO-CH206] | 98.1% | – | – |
| COc1ccc2c(c1)c(C#N)cn2-c1ccc(C(=O)O)cc1 [XO-CH183] | 80.6% | 14.5 nM | – |
| N#Cc1cn(-c2ccc(-c3nnn[nH]3)cc2)nc1-c1ccccc1 [XO-TT473] | – | 16 nM | – |
| N#Cc1cn(-c2ccc(C(=O)O)cc2)cc1-c1ccccc1C(F)(F)F [XO-B412] | 50.5% | 6.38 nM | – |
| COc1ccccc1-c1cn(-c2ccc(C(=O)O)cc2)cc1C#N [XO-B403] | – | 5.98 nM | 62.1% |
| N#Cc1cn(-c2ccc(C(=O)O)cc2)c2ncccc12 [XO-KT10] | 92.3% | – | – |
| Cc1cccc2c(C#N)cn(-c3ccc(C(=O)O)cc3)c12 [XO-CH205] | 95.7% | – | – |
| N#Cc1nn(-c2ccc(C(=O)O)cc2)nc1-c1ccccc1 [XO-B366] | – | 77.7 nM | – |
| N#Cc1cn(-c2ccc(C(=O)O)cc2)nc1-c1ccccc1 [XO-TT469] | – | 8.18 nM | 75% |
| N#Cc1cn(-c2ccc(C(=O)O)cc2)cc1-c1nccs1 [XO-B420] | – | 6.33 nM | – |
| N#Cc1nn(-c2ccc(C(=O)O)cc2)c2ccccc12 [XO-KT30] | 79.9% | – | – |

More lines, main results first:

| inhibition at 100 µM [1] | IC50 [3] | SMILES | inhibition in vivo at 10 mg/kg [2] |
| --- | --- | --- | --- |
| – | 5.59 nM | COc1cccc(-c2nn(-c3ccc(C(=O)O)cc3)cc2C#N)c1 [XO-TT552] | – |
| – | 5.21 nM | Cc1ccsc1-c1nn(-c2ccc(C(=O)O)cc2)cc1C#N [XO-TT545] | 75.8% |
| – | 5.86 nM | N#Cc1cn(-c2ccc(C(=O)O)cc2)cc1-c1ccc(Cl)s1 [XO-B414] | 67.1% |
| 67.1% | 3.74 nM | N#Cc1cn(-c2ccc(C(=O)O)cc2)nc1-c1cccs1 [XO-TT508] | – |
| – | 4.86 nM | Cc1ccc(-c2nn(-c3ccc(C(=O)O)cc3)cc2C#N)cc1 [XO-TT537] | – |
| – | 5.03 nM | N#Cc1cn(-c2ccc(C(=O)O)cc2)cc1-c1ccc(F)cc1 [XO-B438] | 69.3% |
| – | 4.12 nM | N#Cc1cn(-c2ccc(C(=O)O)cc2)nc1-c1ccc(F)cc1 [XO-TT572] | 56.1% |
| – | 5 nM | Cn1cccc1-c1cn(-c2ccc(C(=O)O)cc2)cc1C#N [XO-B410] | 59.1% |
| – | 5.52 nM | COc1ccccc1-c1nn(-c2ccc(C(=O)O)cc2)cc1C#N [XO-TT574] | – |
| – | 5.44 nM | Cc1ccc(-c2nn(-c3ccc(C(=O)O)cc3)cc2C#N)s1 [XO-TT554] | 60.5% |
| – | 5.56 nM | Cc1ccc(-c2cn(-c3ccc(C(=O)O)cc3)cc2C#N)s1 [XO-B399-2] | 69.4% |
| – | 4 nM | Cc1ccccc1-c1nn(-c2ccc(C(=O)O)cc2)cc1C#N [XO-TT573] | 66.3% |
| – | 4.9 nM | N#Cc1cn(-c2ccc(C(=O)O)cc2)cc1-c1ccccc1 [XO-B327] | 74.1% |
| – | 5.71 nM | N#Cc1cn(-c2ccc(C(=O)O)cc2)cc1-c1ccc(Cl)cc1 [XO-B421] | 57.8% |
| – | 5.24 nM | N#Cc1cn(-c2ccc(C(=O)O)cc2)cc1-c1ccccc1Cl [XO-B397] | 76.7% |
| – | 3.77 nM | COc1ccc(-c2nn(-c3ccc(C(=O)O)cc3)cc2C#N)cc1 [XO-TT544] | 71.1% |
| – | 2.91 nM | N#Cc1cn(-c2ccc(C(=O)O)cc2)nc1-c1ccccc1F [XO-TT559] | 75.9% |
| – | 3.71 nM | N#Cc1cn(-c2ccc(C(=O)O)cc2)cc1-c1ccccc1F [XO-B436] | 77.3% |
| – | 5.09 nM | N#Cc1cn(-c2ccc(C(=O)O)cc2)cc1-c1ccc(C(F)(F)F)cc1 [XO-B428] | 68.3% |
| – | 5.18 nM | N#Cc1cn(-c2ccc(C(=O)O)cc2)nc1-c1ccccc1Cl [XO-TT524] | 68.7% |
| – | 4.26 nM | Cc1ccc(-c2cn(-c3ccc(C(=O)O)cc3)cc2C#N)cc1 [XO-B423] | 66.6% |
| – | 3.56 nM | COc1ccc(-c2cn(-c3ccc(C(=O)O)cc3)cc2C#N)cc1 [XO-B422] | 79% |
| – | 3.59 nM | Cc1ccccc1-c1cn(-c2ccc(C(=O)O)cc2)cc1C#N [XO-B395-1] | 79.1% |
